Experiment [1] has as its target T1, PCNA (Homo sapiens, UniProt P12004).
T1 construct: endogenous PCNA was knocked down with transfection of PCNA-specific siRNA; endogenous in cells; host or cells: PC-3
In words: Euchromatin- and heterochromatin-associated PCNA. Type of experiment: cell-based. Conditions: PC-3, 0.5 μM, 8 H; FIG. 12. The protocol: Differential effects of PCNA-I1 on the level of euchromatin- (often under active gene transcription) and heterchromatin (often under limited gene transcription) associated PCNA were also investigated. Specifically, PC-3 cells were treated for 8 H with 0.5 μM of PCNA-I1 and PCNA was extracted by procedures known in the art with a combination of limited digestion with micrococcal nuclease and treatment with EDTA to obtain total (S1), euchromatin-associated (S2), and heterochromatin-associated (S3). The extracts were subjected to western blotting analysis.

The next experiment deals with 22Rv1 cells. In words: 22Rv1 tumor model in male nude mice. Type of experiment: in vivo. As to conditions: 10 mg/kg i.p., three times/week. The protocol:
The therapeutic effects of PCNA-I1 were evaluated in LNCaP cells and 22Rv1 tumor models. LNCaP or 22Rv1 cells (1-2×10^6 cells in gelfoam) were implanted into the subcutis of male nude mice. From four to five days later, tumor-bearing mice were intraperitoneally injected with 10 mg/kg or 50 mg/kg of PCNA-I1. The therapy was continued at three times/week until termination of experiments. Control and treated tumor-bearing mice were monitored daily. Mouse body weight was recorded for toxicity evaluation twice a week and tumor size was measured using calipers twice a week. The experiments were terminated when mice in control groups were moribund. Additionally, to further evaluate potential liver and renal toxicity of PCNA-I1, the blood of tumor-bearing mice were sampled after the treatment with PCNA-I1 for 8 weeks.

A further experiment deals with T47D breast cancer cells. In words: Growth inhibition by MTT staining, T47D. Conditions: 96 h, Human tumor cells, treated four days. Type of experiment: cell-based. The protocol:
Growth inhibitory effects of PCNA-I1 and PCNA-I2 were assessed in human cancer cell lines, mouse cancer cell lines, immortalized mouse cell lines, and human primary cell lines. Specifically, growth inhibitory effects of PCNA-I1 and PCNA-I2 were assessed using MTT staining in the following cells lines: 1) human cancer cell lines including LNCaP (androgen receptor […]), 22Rv1, DU-145, LAPC-4, and PC-3 (androgen receptor […]) prostate cancer cells; MCF-7 and T47D breast cancer cells; A375 and MDA-MB435 melanoma cells; 2) mouse cancer cell lines including TRAMP-C2RE3 prostate cancer cells, B16 and K1735 melanoma cells, UV2237 fibrosarcoma cells, and CT-26 colon cancer cells; 3) immortalized mouse lung cell lines and mouse endothelial cell lines; and 4) primary human cell lines including umbilical endothelial cells (HUVEC, PromoCell, Heidelberg, Germany), primary bone marrow mesenchymal stem cells (HuMSC, PromoCell), primary human mammary epithelial cells (HuBrEC, Lonza, Walkersville, Md.), primary human prostate epithelial cells (HuPrEC, Lonza), and primary mouse spleen lymphocytes (isolated in this laboratory), and primary mouse bone marrow stromal cells (isolated in this laboratory). […]
IC50 values were derived from growth inhibition curves. […] Inhibition of cell growth was calculated using the formula: growth inhibition (%)=(1−A570 of treated/A570 of control)×100. […]

The test system of a further experiment is PC-3 cells. Description: MTT assay, PCNA-I1 and cisplatin alone or combined, PC-3. Type of experiment: cell-based, Human. As to conditions: Homo sapiens. The protocol:
LNCaP or PC-3 cells were treated with a variety of concentrations of PCNA-I1 (0.1-10 μM) or cisplatin (0.1-10 μM) alone, or with a variety of concentrations of a combination of PCNA-I1 (0.1-10 μM) and cisplatin (0.1-10 μM) for four days. MTT assays were performed and IC50 values for PCNA-I1 and cisplatin were determined.
For orientation: Tetrazolium dyes change colour on reduction, which living cells bring about.

Experiment [2] concerns the target T1, PCNA. In words: PCNA stability and degradation (immunoblot). Type of experiment: cell-based. As to conditions: PC-3, 0.5 μM, up to 16 H, with or without CHX and MG132; FIG. 14. The protocol: PCNA is a very stable protein with a half life of 20 H in replicating cells. The effect of PCNA-I1 on PCNA stability and degradation was investigated. Specifically, PC-3 cells were treated for various times up to 24 H with protein synthesis inhibitor cycloheximide (CHX) to block de novo protein synthesis. Cells were lyzed in buffer A as discussed above and analyzed by immunoblotting. Additionally, because PCNA is subject to ubiquitination regulation, the effect of PCNA-I1 on and deregulation of PCNA through the proteosome-mediated system was also investigated. Specifically, PC-3 cells were treated for 16 H with 0.5 μM PCNA-I1 in the absence or presence of 5 μg/mL of CHX and/or 10 μM of MG132, a well-documented proteosome inhibitor.
A general note: A western blot detects proteins with antibodies after separation by electrophoresis.

Like-named read-outs stand apart in the source and are kept apart here.

T1 sequence (P12004 whole entry): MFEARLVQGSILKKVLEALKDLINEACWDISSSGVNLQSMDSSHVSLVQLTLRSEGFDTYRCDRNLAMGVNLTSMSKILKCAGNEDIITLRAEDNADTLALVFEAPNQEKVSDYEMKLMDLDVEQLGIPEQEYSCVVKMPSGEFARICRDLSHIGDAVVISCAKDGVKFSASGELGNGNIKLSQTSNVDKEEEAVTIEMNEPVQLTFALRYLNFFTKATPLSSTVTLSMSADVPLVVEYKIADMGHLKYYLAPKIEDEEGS

Consider `Cc1ccsc1C(=O)N/N=C/c1ccc2ccccc2c1O` [PCNA-I1], for which the “Euchromatin- and heterochromatin-associated PCNA” value on PCNA [1] is “reduced both euchromatin- and heterochromatin protein 1α”. Moreover, in the experiment with 22Rv1 cells, the “Tumor growth, 22Rv1 model” value is listed as “retarded tumor growth”. Besides, the IC50 in the experiment on T47D breast cancer cells was 150 nM; in the experiment on PC-3 cells (PC-3, 96 h, MTT, four days, single agent, read-out: IC50 doses for cell growth inhibition, PC-3, agent alone) it was 240 nM; with PC-3 cells (PC-3, combined with 0.3 μM cisplatin, read-out: PCNA-I1 concentration giving 50% inhibition in combination, PC-3), 80 nM. Further, the PCNA degradation result on PCNA [2] was “did not alter PCNA degradation”.

The values are drawn from patent US9895363B2, “Methods for modulating function of proliferating cell nuclear antigen (PCNA) and treating cancer with PCNA-targeting compounds” (University of Cincinnati, priority 2010, dated 2018).
